The values that follow are results of earlier work, collected in patent publication US20230192588A1, “CANNABIDIOLIC ACID (CBDA) DERIVATIVES AND USES THEREOF” (YISSUM RESEARCH DEVELOPMENT COMPANY OF THE HEBREW …, priority 2020, published 2023).

Each structure is given as a SMILES string.

The test system of one data set is rat models. The note with it: oral ingestion of a low dose (1 mg/kg); two rat models.
Data set [1] has as its system rats. The conditions noted are these: compared to CBDA, 5-HT1A receptor-dependent manner.
The test system of data set [2] is rats. The note with it: compared to CBDA, 5-HT1A receptor-dependent manner. The source holds these as a separate data set.

On to `C=C(C)[C@@H]1CCC(C)=C[C@H]1c1c(O)cc(CCCCC)c(C(=O)OC)c1O` [HU-580, cannabidiolic acid methyl ester], for which, in the data set with rat models, the anti-depressant effect result is “potent anti-depressant effect”. Also, the “potency in suppressing signs of both acute and anticipatory nausea” value in the data set on rats [1] is “greater potency than CBDA”. Also, the “potency in suppressing signs of stress-induced anxiety” value in the data set with rats [2] is given as “greater potency than CBDA”.
